# Experimental data: ChEMBL document CHEMBL3885861, “Open TG-GATES”
# Species on record: Rattus norvegicus
# Assay: Open TG-GATES - Regimen: Single
# Format: toxicity, organism-based, Sprague-Dawley
# Parameters: regimen Single, gender Male, age 6 weeks
# Settings: in vivo, po, 1000 mg/kg, route gavage, dose level High; for APTT / Bas / Eos / Fbg / Hb / Ht / Lym / MCH / MCHC / MCV / Mono / Neu / PT / Plat / RBC / Ret / WBC: tissue Blood; for KIDNEY_L / KIDNEY_R / KIDNEY_TOTAL: tissue Kidney; for LIVER: tissue Liver; for A/G / ALP / ALT / AST / BUN / CRE / Ca / Cl / DBIL / GLC / IP / K / LDH / Na / PL / RALB / TBIL / TC / TG / TP / gamma-GTP: tissue Plasma
smiles,measurement,setting,value
COc1ccc(Cl)cc1C(=O)NCCc1ccc(S(=O)(=O)NC(=O)NC2CCCCC2)cc1 [GLYBURIDE],TERMINAL_BW,3 h,216.5 g
same,APTT,3 h,18.9 s
same,Bas,3 h,0%
same,Eos,3 h,1%
same,Fbg,3 h,226.2 mg/dL
same,Hb,3 h,13.2 g/dL
same,Ht,3 h,40.8%
same,Lym,3 h,69.2%
same,MCH,3 h,20.3 pg
same,MCHC,3 h,32.5%
same,MCV,3 h,62.6 fL
same,Mono,3 h,4%
same,Neu,3 h,25%
same,PT,3 h,12.6 s
same,Plat,3 h,118.1 x10_4/uL
same,RBC,3 h,651.8 x10_4/ul
same,Ret,3 h,7.9%
same,WBC,3 h,75.5 x10_2/uL
same,KIDNEY_L,3 h,0.9 g
same,KIDNEY_R,3 h,1 g
same,KIDNEY_TOTAL,3 h,1.9 g
same,LIVER,3 h,9.5 g
same,A/G,3 h,1.6
same,ALP,3 h,1086.8 IU/L
same,ALT,3 h,43.2 IU/L
same,AST,3 h,67.2 IU/L
same,BUN,3 h,13.2 mg/dL
same,CRE,3 h,0.3 mg/dL
same,Ca,3 h,10.7 mg/dL
same,Cl,3 h,104.4 meq/L
same,DBIL,3 h,0.2 mg/dL
same,GLC,3 h,125.4 mg/dL
same,IP,3 h,7.8 mg/dL
same,K,3 h,3.7 meq/L
same,LDH,3 h,172.8 IU/L
same,Na,3 h,141.8 meq/L
same,PL,3 h,178.6 mg/dL
same,RALB,3 h,3.4 g/dL
same,TBIL,3 h,0.2 mg/dL
same,TC,3 h,85.2 mg/dL
same,TG,3 h,123 mg/dL
same,TP,3 h,5.5 g/dL
same,gamma-GTP,3 h,1.8 IU/L
same,TERMINAL_BW,6 h,217.2 g
same,APTT,6 h,19.4 s
same,Bas,6 h,0%
same,Eos,6 h,0.8%
same,Fbg,6 h,240.8 mg/dL
same,Hb,6 h,13.6 g/dL
same,Ht,6 h,41.3%
same,Lym,6 h,79.4%
same,MCH,6 h,20.7 pg
same,MCHC,6 h,32.9%
same,MCV,6 h,62.9 fL
same,Mono,6 h,2.8%
same,Neu,6 h,16.2%
same,PT,6 h,12.6 s
same,Plat,6 h,128.9 x10_4/uL
same,RBC,6 h,657 x10_4/ul
same,Ret,6 h,8.2%
same,WBC,6 h,91.7 x10_2/uL
same,KIDNEY_L,6 h,1 g
same,KIDNEY_R,6 h,1 g
same,KIDNEY_TOTAL,6 h,1.9 g
same,LIVER,6 h,9.7 g
same,A/G,6 h,1.6
same,ALP,6 h,948.2 IU/L
same,ALT,6 h,38.4 IU/L
same,AST,6 h,65.4 IU/L
same,BUN,6 h,12.4 mg/dL
same,CRE,6 h,0.4 mg/dL
same,Ca,6 h,10.6 mg/dL
same,Cl,6 h,104.2 meq/L
same,DBIL,6 h,0.1 mg/dL
same,GLC,6 h,155.8 mg/dL
same,IP,6 h,8.7 mg/dL
same,K,6 h,3.6 meq/L
same,LDH,6 h,169.2 IU/L
same,Na,6 h,141.8 meq/L
same,PL,6 h,154 mg/dL
same,RALB,6 h,3.5 g/dL
same,TBIL,6 h,0.2 mg/dL
same,TC,6 h,82.4 mg/dL
same,TG,6 h,86.4 mg/dL
same,TP,6 h,5.7 g/dL
same,gamma-GTP,6 h,1.6 IU/L
same,TERMINAL_BW,9 h,211.6 g
same,APTT,9 h,18.9 s
same,Bas,9 h,0%
same,Eos,9 h,1%
same,Fbg,9 h,228 mg/dL
same,Hb,9 h,13.3 g/dL
same,Ht,9 h,40.7%
same,Lym,9 h,76%
same,MCH,9 h,20.4 pg
same,MCHC,9 h,32.6%
same,MCV,9 h,62.5 fL
same,Mono,9 h,2.8%
same,Neu,9 h,19.6%
same,PT,9 h,12.9 s
same,Plat,9 h,115.6 x10_4/uL
same,RBC,9 h,651.2 x10_4/ul
same,Ret,9 h,7.8%
same,WBC,9 h,83.2 x10_2/uL
same,KIDNEY_L,9 h,0.9 g
same,KIDNEY_R,9 h,0.9 g
same,KIDNEY_TOTAL,9 h,1.8 g
same,LIVER,9 h,8.7 g
same,A/G,9 h,1.7
same,ALP,9 h,1050.6 IU/L
same,ALT,9 h,35.4 IU/L
same,AST,9 h,65.2 IU/L
same,BUN,9 h,12.8 mg/dL
same,CRE,9 h,0.4 mg/dL
same,Ca,9 h,10.7 mg/dL
same,Cl,9 h,103.8 meq/L
same,DBIL,9 h,0.1 mg/dL
same,GLC,9 h,139 mg/dL
same,IP,9 h,9.5 mg/dL
same,K,9 h,3.5 meq/L
same,LDH,9 h,168.2 IU/L
same,Na,9 h,142.2 meq/L
same,PL,9 h,141 mg/dL
same,RALB,9 h,3.5 g/dL
same,TBIL,9 h,0.2 mg/dL
same,TC,9 h,70.8 mg/dL
same,TG,9 h,64.2 mg/dL
same,TP,9 h,5.7 g/dL
same,gamma-GTP,9 h,0.6 IU/L
same,TERMINAL_BW,24 h,226 g
same,APTT,24 h,18.8 s
same,Bas,24 h,0.2%
same,Eos,24 h,1%
same,Fbg,24 h,215.2 mg/dL
same,Hb,24 h,13 g/dL
same,Ht,24 h,38.3%
same,Lym,24 h,77.2%
same,MCH,24 h,21.6 pg
same,MCHC,24 h,33.9%
same,MCV,24 h,63.9 fL
same,Mono,24 h,2.8%
same,Neu,24 h,18.6%
same,PT,24 h,12.8 s
same,Plat,24 h,126.5 x10_4/uL
same,RBC,24 h,600.8 x10_4/ul
same,Ret,24 h,6.8%
same,WBC,24 h,87.8 x10_2/uL
same,KIDNEY_L,24 h,1 g
same,KIDNEY_R,24 h,1 g
same,KIDNEY_TOTAL,24 h,1.9 g
same,LIVER,24 h,10.1 g
same,A/G,24 h,1.7
same,ALP,24 h,923.4 IU/L
same,ALT,24 h,35.6 IU/L
same,AST,24 h,69.2 IU/L
same,BUN,24 h,16.2 mg/dL
same,CRE,24 h,0.3 mg/dL
same,Ca,24 h,10.7 mg/dL
same,Cl,24 h,103.4 meq/L
same,DBIL,24 h,0.1 mg/dL
same,GLC,24 h,195 mg/dL
same,IP,24 h,7.7 mg/dL
same,K,24 h,3.4 meq/L
same,LDH,24 h,218.2 IU/L
same,Na,24 h,142.6 meq/L
same,PL,24 h,143.6 mg/dL
same,RALB,24 h,3.5 g/dL
same,TBIL,24 h,0.2 mg/dL
same,TC,24 h,75.4 mg/dL
same,TG,24 h,74 mg/dL
same,TP,24 h,5.5 g/dL
same,gamma-GTP,24 h,1.4 IU/L
